Data as given in patent US20190374601A1, “METHODS FOR TREATING FUNGAL INFECTIONS” (priority 2017, published 2019).
Starred links: 1 amine or outer side, 2 acyl side, 3 side chain; linkers in the order of their positions; H or OH if unused. Positions of bridges follow the written chain, without caps; N, C: chain ends. Non-standard residues stand in square brackets, D forms with d. Residues, ends and D or L forms follow the SMILES beside them. *: point of attachment. Orn(4R-OH,5R-OCH2CH2NMe3+) = C[N+](C)(C)CCO[C@@H](N[*:3])[C@H](O)C[C@H](N[*:1])C(=O)[*:2]; pTerphenylCO(4''-OnC5H11) = CCCCCOc1ccc(-c2ccc(-c3ccc(C(=O)*)cc3)cc2)cc1; hTyr(3S-OH,4S-OH) = N[C@H](C(=O)O)[C@H](O)[C@@H](O)c1ccc(O)cc1; Pro(3S-OH,4S-Me) = C[C@H]1CN[C@H](C(=O)O)[C@H]1O; Hyp = O=C(O)[C@@H]1C[C@@H](O)CN1

What was measured:
Assay type in all cases: in vivo
[1] = Toxicokinetic evaluation (plasma) after subcutaneous injection in cynomolgus monkeys
Procedure: Dose levels were 30, 60, and 120 mg/kg/dose for Groups 2, 3, and 4, respectively. […] The dose volumes were 1.2, 0.3, 0.6, and 1.2 mL/kg spread evenly over 4, 1, 2, and 4 dose sites for Groups 1-4, respectively, on each day of dosing. The control and 120 mg/kg/dose groups each consisted of 5 males and 5 females, and the 30 and 60 mg/kg/dose groups each consisted of 3 males and 3 females.
The animals were observed twice daily for mortality and moribundity. Clinical examinations were performed once daily for at least 6 consecutive days, including the day of randomization, prior to randomization, prior to dosing, 1-2 hours postdosing, once daily on nondosing days, and once daily during the recovery period. Detailed physical examinations were performed at least weekly during the acclimation period until randomization, on the day of randomization, weekly (±2 days) during the study period, and on the day of the scheduled necropsies. Injection site (IS) observations were performed prior to dosing (dose sites that were utilized on that day of dosing), 1-2 hours postdosing (dose sites that were utilized on that day of dosing), once daily on nondosing days (dose sites that had been previously been utilized), and twice weekly during the recovery period. Individual body weights were recorded weekly (±2 days). Individual body weights were collected at least weekly during the acclimation period until randomization, on the day of randomization, Study Day 0 (prior to dosing), weekly (2±days) during the study period, on the day prior to the day of the scheduled necropsies (nonfasted) and on the day of the scheduled necropsies (fasted). Clinical pathology parameters (hematology, coagulation, serum chemistry, and urinalysis) were analyzed during acclimation prior to randomization (Study Day −15), and on the day of the primary (Study Day 17) and recovery (Study Day 45) necropsies. Blood samples for toxicokinetic evaluation were collected from all animals/sex/group/time point prior to dose administration and at approximately 1, 2, 4, 8, 24, 48, and 72 hours after dose administration on Study Days 0 and 12. Complete necropsies were performed on all animals, and selected organs were weighed at the scheduled necropsies. Selected tissues were examined microscopically from all animals. Fingernail, toenail, nail bed, and abdominal skin samples were collected from all animals at the scheduled necropsies for bioanalytical analysis.

[2] = test system: T. mentagrophytes ATCC 24953; assay: Clinical evaluation of infected skin, T. mentagrophytes dermatophytosis guinea pig model, Example 1; settings: for Percent Efficacy Clinical: evaluated study day 10, relative to vehicle control
Procedure: (§1) A request was made to the Animal Resource Center (ARC) at Case Western Reserve University to order the required number of male albino Harlan-Sprague-Dawley Guinea-Pigs (San Diego, Calif.) with a body weight of 450-500 g. Animals were allowed to acclimate for a minimum of 5 days prior to use. Environmental controls for the animal room were set to maintain a temperature of 16 to 22° C., a relative humidity of 30-70%, and a 12:12 light-dark cycle.
(§2) T. mentagrophytes ATCC 24953 was used as the infecting fungus. This strain was selected because it can cause skin infection and results in inflammatory reaction.
(§3) T. mentagrophytes (from frozen stock) was sub-cultured on Potato Dextrose Agar plates and incubated at 30° C. for 5-7 days. The colonies were scraped from the plates using sterile normal saline (NaCl 0.85%) solution. After washing for three times with sterile saline the conidia were re-suspended in the same solution. Ten-fold dilutions of conidia suspension were prepared and counted using a hemacytometer. Working suspension of conidia was prepared at a final concentration of 1×10^7 Colony Forming Units (CFUs)/100 μL in normal saline.
(§4) Each animal was anesthetized with a cocktail of xylazine and ketamine: 0.2 mL intramuscularly. Using an electric shaver, hair was clipped on left side of the guinea pig back. A closer shave was done with a disposable razor. Using a stencil, a square of 2.5 cm×2.5 cm was marked. The marked skin area was abraded with sterile fine grit sandpaper. A cell suspension containing 1×10^7 conidia in 100 μL was applied and rubbed thoroughly on the abraded skin.
(§5) Beginning two hours post inoculation, animals were treated subcutaneously (SQ) for CD101 and orally (PO) terbinafine once daily for a period of nine days, or once a week on days 1 and 8.
(§6) Study Day 1: Infected the animals with T. mentagrophytes and begin treatments.
(§7) Study Day 9 (treatment day 9): End treatments.
(§8) Study Day 10: Clinical evaluation of the four quadrants in the marked area was done. Hair samples were obtained from each quadrant (10 per quadrant). Hairs were planted in Potato Dextrose Agar, and incubated for 48 h for mycological evaluation. Procedures for clinical and mycological evaluations are described below.
(§9) CD101 was administered SQ in 0.3 mL, while the terbinafine was given orally in 0.3 mL. Vehicle treated group was also included.
Clinical assessment of local changes of the infected skin area was scored as follows:
1=Few slightly erythematous places on the skin
2=Well-defined redness, swelling with bristling hairs.
3=Large areas or marked redness incrustation, scaling, bald patches, ulcerated in places.
4=Partial damage to the integument and loss of hair
5=Extensive damage to the integument and complete loss of hair at the site of infection.
Any other local skin reactions were noted. The assessment of clinical evaluation in the change of scores per treatment group is expressed as percentage relative to the vehicle control group of animals using the following formula:
where, T=Scores in the test group. K=Scores in the untreated control

[3] = test system: T. mentagrophytes ATCC 24953; assay: Hair root invasion test (mycological evaluation), T. mentagrophytes dermatophytosis guinea pig model, Example 1; settings: evaluated study day 10, relative to vehicle control
Procedure: as §1, §2, §3, §4, §5, §6, §7, §8, §9
Hair samples were removed with a sterile forceps from four quadrants. Ten hair samples from each quadrant were inoculated onto the corresponding quadrant on the Potato Dextrose agar plate and incubated at 30° C. for 2 days. The fungal growth at the hair root was examined under a stereomicroscope. The effectiveness of a compound in reducing the number of mycologically positive hair sample per treated group is expressed as percentage relative to the vehicle control group of animals using the following formula:
where, T=Positive hair in the test group, K=Positive hair in the Untreated control.

[4] = 35 mg/kg SQ daily for nine days
[5] = 35 mg/kg SQ once a week (days 1 and 8)

With CCCCCOc1ccc(-c2ccc(-c3ccc(C(=O)N[C@H]4C[C@@H](O)[C@@H](OCC[N+](C)(C)C)NC(=O)[C@@H]5[C@@H](O)[C@@H](C)CN5C(=O)[C@H]([C@@H](C)O)NC(=O)[C@H]([C@H](O)[C@@H](O)c5ccc(O)cc5)NC(=O)[C@@H]5C[C@@H](O)CN5C(=O)[C@H]([C@@H](C)O)NC4=O)cc3)cc2)cc1 [CD101] ({pTerphenylCO(4''-OnC5H11)}-[Orn(4R-OH,5R-OCH2CH2NMe3+)]T[Hyp][hTyr(3S-OH,4S-OH)]T[Pro(3S-OH,4S-Me)]; lactam 1-C) the “combined accumulation ratio (plasma)” value ([1]; 30 mg/kg/dose SC once every 3 days, males and females combined) was 3.18, the “combined accumulation ratio (plasma)” value ([1]; 60 mg/kg/dose SC once every 3 days, males and females combined) was 2.70 and the “combined accumulation ratio (plasma)” value ([1]; 120 mg/kg/dose SC once every 3 days, males and females combined) was 2.67. For the same compound, the “time by which concentrations reached maximum or near maximum observed values” ([1]; Study Day 0, postdose, SC) was no more than 8 h, the “increase of combined exposure (AUC0-72 and Cmax) over a 4-fold dose change” value ([1]; Study Day 12, 30 to 120 mg/kg/dose SC) was “approximately 3 fold” and the “predose concentration on Study Day 12 relative to Study Day 0 Cmax” value ([1]; Study Day 12 predose, SC once every 3 days) was “approximately 2 fold”. For the same compound, the Cmax ([1]; both sexes, cynomolgus monkey, plasma, range across the 30 to 120 mg/kg groups, males and females combined, SC) was 21000 to 65100 ng/mL, the AUC(0-t) ([1]; both sexes, cynomolgus monkey, plasma, range across the 30 to 120 mg/kg groups, males and females combined, SC, read-out: AUC0-72) was 1360 to 4320 µg·h/mL and the “Percent Efficacy Clinical” value [2, 4] was 84.0%. For the same compound, the “Percent Efficacy Clinical” value [2, 5] was 78.7%, the “clinical signs versus vehicle control group” value ([2]; guinea pigs, 35 mg/kg SQ daily and weekly) was “fewer clinical signs than the vehicle control group beginning on day 5 post inoculation” and the injection site reaction ([2]; guinea pigs, 35 mg/kg SQ daily or once a week) was “no bruising or redness was noted at the injection site”. For the same compound, the “Percent Efficacy Mycological” value [3, 4] was 88.0% and the “Percent Efficacy Mycological” value [3, 5] was 85.5%.
